According to US5371186A, “Synthetic peptides for detoxification of bacterial endotoxins and for the prevention and treatment of septic shock” (priority 1992, dated 1994):

What was measured:
[1] = direct competition with Polymyxin "B" (Affinity constant, Selectivity); assay type: binding, B. pertussis
Source text: To further characterize the binding activity of the synthetic peptides for Lipid A of endotoxin, experiments of direct competition with Polymyxin "B" have been set-up in order to evaluate the Affinity constant value of Polymyxin "B" for the toxic moiety of endotoxin and ultimately to calculate the Selectivity of the synthetic peptide analogs (ratio on molar basis, between the affinity constant value of a given peptide and that of Polymyxin "B" for Lipid A).

[2] = Rabbit pyrogen test of peptide/LPS complexes; assay type: in vivo; conditions: rabbits, complex with LPS injected, three hours observation
Source text: As a consequence of this high-affinity binding to the Lipid A moiety of endotoxins, most of the synthetic peptide analogs have shown the ability to detoxify endotoxins as evidenced by in vitro as well as in vivo analysis. The in vitro test used, as measure of detoxification, the inhibition of the enzymatic cascade leading to the coagulation of the Lymulus lysate (LAL test) by endotoxin. The LAL test is recognized as the most sensitive and predictive test for the toxic and pyrogenic activity of LPS, since pyrogenicity in vivo is related to the release of the endogenous immune modulators Interleukin-1 (IL-l) and alfa-Tumor necrosis factor (α-TNF), the mediators responsible for the fatalities associated to septic shock. As an in vivo test confirming detoxification of LPS, was then used the Rabbit pyrogen test performed according to the United States Pharmacopeia XXI.
In order to verify "in vivo" the detoxifying activity of the peptides, we have injected five groups of three rabbits each with the complexes formed by two representative synthetic peptide analogs with LPS. The pyrogenicity test has been executed according to the United States Pharmacopeia (Vol. XXI)/The National formulary (Vol. XVI), Combined Edition, Jan. 1, 1985. As a negative control in the test, the complex formed by Polymyxin "B" and LPS was injected. As a positive control free LPS was injected. […]

Salmonella Typhi = test: antibiotic activity, zone of inhibition on BHI plates; assay type: cell-based, S. typhi; conditions: 18 hours
Experimental: (§1) The following experiments compared the antibiotic activity of Polymyxin "B" with various peptides of the invention.
(§2) The tests were performed on BHI plates with liquid cultures of the test organism to give a lawn. Each peptide was diluted in water and placed on sterile Wathmam 3M disks on the surface of the plate. The plates were dried and incubated at 37° C. The zone of inhibition was measured after 18 hours: […]

Vibrio cholerae = test: as above; assay type: cell-based, V. choleras; conditions: 18 hours
Experimental: as §1, §2

[3] = survival of Balb/c mice after endotoxin challenge; assay type: in vivo, mice (Strain Balb/c); conditions: for % survival / Mice surviving: peptides 1 mg/mouse, Polymyxin B 0.1 mg/mouse i.v., 1 mg endotoxin i.p.; for Mice surviving: 20 mice per group
Experimental: Groups of 20 mice Balb/c have been treated intravenously with the peptides of the invention at the dose of 1 mg/mouse or with 0.1 mg/mouse of Polymyxin B (the highest dose of this drug tolerated in the mouse, when injected alone). Thirty minutes later, mice were challenged by intraperitoneal injection of 1 mg endotoxin from E.C strain 055-B5. Surviving mice were recorded every 24 hours during a seven days-period of observation. Negative controls received an intravenous injection of saline.
There were 20 mice per group. Mice surviving at each of the seven 24 hours observation periods are listed. The % survival appears in parenthesis. P expresses the level of statistical significance calculated by "t-Test" for each molecule compared to the treatment with saline, considering the total survival rate in each group.

Substance: Polymyxin "B"
- AFFINITY (Ka) ([1]; for Lipid A of LPSbp): 1.15e+07 L/mol
- SELECTIVITY (KaANA /KaPCP) ([1]; ratio of Ka of peptide to Ka of Polymyxin "B" for Lipid A): 1.0
- pyrogenicity (temperature increase) of complex with LPS [2]: did not show either of the two waves of temperature increase
- Zone (mm) of inhibition S. typhi (Salmonella Typhi; 0.008 μg/ml): 0 mm
- Zone (mm) of inhibition S. typhi (Salmonella Typhi; 0.04 μg/ml): 1 mm
- Zone (mm) of inhibition S. typhi (Salmonella Typhi; 0.2 μg/ml): 2 mm
- Zone (mm) of inhibition S. typhi (Salmonella Typhi; 1.0 μg/ml): 4 mm
- Zone (mm) of inhibition V. choleras (Vibrio cholerae; 0.008 μg/ml): 1 mm
- Zone (mm) of inhibition V. choleras (Vibrio cholerae; 0.04 μg/ml): 2 mm
- Zone (mm) of inhibition V. choleras (Vibrio cholerae; 0.2 μg/ml): 2.5 mm
- Zone (mm) of inhibition V. choleras (Vibrio cholerae; 1.0 μg/ml): 5 mm
- % survival ([3]; 24 hs): 90%
- Mice surviving ([3]; 24 hs): 18
- % survival ([3]; 48 hs): 70%
- Mice surviving ([3]; 48 hs): 14
- % survival ([3]; 72 hs): 60%
- Mice surviving ([3]; 72 hs): 12
- % survival ([3]; 96 hs): 0%
- Mice surviving ([3]; 96 hs): 0
- % survival ([3]; 120 hs): 0%
- Mice surviving ([3]; 120 hs): 0
- % survival ([3]; 144 hs): 0%
- Mice surviving ([3]; 144 hs): 0
- % survival ([3]; 168 hs): 0%
- Mice surviving ([3]; 168 hs): 0
- safety and efficacy of treatment ([3]; Balb/c mice, 1 mg endotoxin challenge): resulted efficacious only within three days following the endotoxin challenge
